Values after ≈ are worked out from the molar mass of the structure shown. Read-outs that look alike come from different tables or passages of the source.
Tests used:
E.coli = assay type: cell-based, Escherichia coli; conditions: for MIC ratio Coli/Staph: ratio of E. coli MIC to S. aureus MIC
Protocol: (§1) This assay was used to determine the minimum concentration of a test compound (i.e., an antimicrobial peptide described herein) able to inhibit the growth of a bacterial strain of interest. This is a standard method for measuring and comparing the potency of peptide-based antibacterial agents (Steinberg et al., Antimicrobial Agents and Chemotherapy 1997, 41 (8) 1738 - 1742 and Wiegand et al., Nature Protocols 2008, 3, 163-175).
(§2) The MIC is reported in units of μg/mL.
(§3) Bacterial cultures were grown by inoculating Mueller-Hinton Broth (MHB) with 3 or 4 representative colony (typical size, color, and shape) from a bacterial strain grown on a LB agar plate. Inoculated liquid cultures were grown at 37° C. with moderate shaking (200-250 rpm) until bacteria produced a visibly turbid suspension. Bacterial inoculum was approximated by measuring the optical density at 600 nm (0D600) of the bacterial culture against a sterile MHB blank. Typically, OD600=0.10 corresponds to ˜1×10^8 cfu/mL for S.aureus and OD600 =0.15 corresponds to ˜1×10^8 cfu/mL for E.coli.
(§4) Test compounds were prepared as stock solutions in vehicle at a concentration 10 times the highest concentration to be tested for antibacterial activity (usually 320 μg/mL stock solutions). 2x serial dilutions in vehicle (at 10× the final test concentrations) of the test compounds were prepared from the test compound stock solutions in a non-binding 96 well plate.
(§5) In a sterile clear flat bottom 96 well plate, 15 μL of each test compound dilution was added to 135 μL of ˜5×10^5 cfu/mL bacterial culture. Each concentration was tested in duplicate. Each experiment contained positive control wells for bacterial growth (i.e., no test compound added to bacteria) and sterility controls wells (i.e., sterile MHB and no test compounds added). 96 well plates containing bacterial cultures and test compounds were incubated at 37° C. for 16-20 hours with shaking at 200 rpm.
(§6) After incubation, the MIC of each test compound was determined by measuring the OD600 of each well using a plate reader. Wells with OD600 >0.08 were considered to have bacterial growth and wells with OD600<0.08 were considered to have no bacterial growth. The lowest concentration of test agent able to inhibit bacterial growth (0D600<0.08 after 16-20 hours) was defined as the MIC.

S.aureus = assay type: cell-based, Staphylococcus aureus
Protocol: as §1, §2, §3, §4, §5, §6

S. aureus (14 isolates) = assay type: cell-based, Staphylococcus aureus; conditions: 20 h
Protocol: (§7) The broth microdilution susceptibility assay followed the procedure described by the Clinical and Laboratory Standards Institute (CLSI) in CLSI document M7-A10.
(§8) The following bacteria isolates were tested:
(§9) S.aureus, S.epidermidis, E.faecalis, and E.faecium colonies were grown on TSA (Tryptone Soya Agar; cat.N. P05012A -OXOID) S.pneumoniae and S.pyogenes colonies were grown on TSASB ((TSA) Agar +5% Sheep Blood; cat.N. PB5012A -OXOID). An inoculum was prepared by making a direct saline suspension of isolated colonies selected from an 18 to 24 hours agar plate incubated at 35±2 ° C. in ambient air. The suspension was adjusted to achieve a turbidity equivalent to a 0.5 McFarland turbidity standard (1 to 2 ×10^8 Colony Forming Units (CFU)) and diluted 200 fold within 15 minutes in broth. (S.aureus, S.epidermidis, E.faecalis, and E.faecium were diluted in CAMHB: Mueller Hinton Broth 2, Cation-Adjusted (cat. N. 90922 Fluka); S.pneumoniae and S.pyogenes were diluted in CAMHB +2.5% lysed horse blood. All broth contained 0.002% polysorbate 80.
(§10) 96-well plates were prepared containing 1 μL of the test compound (at 100× desired test concentration in 100% DMSO); compounds were tested at 8 final concentrations, i.e. 16 μg/mL, 8 μg/mL, 4 μg/mL, 2 μg/mL, 1 μg/mL, 0.5 μg/mL, 0.25 μg/mL, and 0.125 μg/mL. 100 μL of the broth dilution was dispensed in each well plate to have a final bacterial concentration in plate of ˜5×10^5 CFU/mL. The plates were incubated at 35±2° C. in ambient air for 20 hours.

[1] = test system: S. epidermidis (5 isolates); assay type: cell-based, Staphylococcus epidermidis; conditions: 20 h
Protocol: as §7, §8, §9, §10

[2] = test system: S. pneumoniae (8 isolates); assay type: cell-based, Streptococcus pneumonia; conditions: 20 h
Protocol: as §7, §8, §9, §10

S. pyogenes (2 isolates) = assay type: cell-based, Streptococcus pyogenes; conditions: 20 h
Protocol: as §7, §8, §9, §10

E. faecalis (5 isolates) = assay type: cell-based, Enterococcus faecalis; conditions: 20 h
Protocol: as §7, §8, §9, §10

E. faecium (3 isolates) = assay type: cell-based, Enterococcus faecium; conditions: 20 h
Protocol: as §7, §8, §9, §10

in vitro = assay type: cell-based; conditions: human, HepG2 cells
Protocol: Compounds were tested for cytotoxicity to a mammalian cell line HepG2 (Human hepatocyte carcinoma from ECACC (85011430)). Hep G2 cells were seeded into 96-well plates, 7500 cells/well in 100 μl medium (Minimum Essential Medium (Gibco 21090) supplemented with 2 mM L-Glutamine, 1% non-essential amino acids and 10% fetal bovine serum) and incubated for 20 hours at 37° C., 5% CO2. 100 μL of fresh medium containing a test compound or DMSO (for control) at 2× final concentration were added and incubated for 48 hours at 37° C., 5% CO2. The final concentration of DMSO in plate was 1%. At the end of this incubation, 20 μl MTT (Thiazolyl Blue Tetrazolium Bromide) solution 5 mg/ml in H2O (0.5 mg/ml final in well) was added to all wells. Cells were incubated with MTT for 4 hours at 37° C., 5% CO2. After incubation, medium containing MTT was removed; 200 μl of DMSO was added in each well and plates were put on a shaker for 5 minutes. Absorbance was read on a SpectraMax plate reader at 570 nm. Specific absorbance (Specific A570) was calculated by subtracting the mean absorbance values of the blank wells (no HepG2 cells) from each well. Control values were determined from wells containing cells and treated with medium+1% DMSO only (no test compound). % viability was calculated as:
(Specific A570test compound/Specific A570control)×100.

Row | Structure (SMILES) | MIC E. coli (E.coli) [µg/mL] | MIC ratio Coli/Staph (E.coli) | MIC S. aureus (S.aureus) [µg/mL] | S. Aureus (14) MIC90 (S. aureus (14 isolates)) [µg/mL] | S. epidermidis (MIC90) (5) [1] [µg/mL] | S. pneumoniae (8) MIC90 [2] [µg/mL] | S. pyogenes (2) MIC90 (S. pyogenes (2 isolates)) [µg/mL] | E. faecalis (5) MIC90 (E. faecalis (5 isolates)) [µg/mL] | E. faecium (3) MIC90 (E. faecium (3 isolates)) [µg/mL] | viability at 48 h, 100 µM (in vitro) [%] | MIC C. difficile (C. difficile) [µg/mL] | MIC B. fragilis (B. fragilis) [µg/mL] | MIC C. difficile (C. difficile; anaerobic broth microdilution, read after 44-48 hours, Example 17b) [µg/mL]
1 | CC[C@H](C)[C@H](NC(=O)[C@@H](Cc1ccccc1)NC)C(=O)N[C@@H](CO)C(=O)N[C@H](CCC(N)=O)C(=O)N[C@@H](C(=O)N[C@H](C(=O)N[C@@H](CO)C(=O)N[C@H]1C(=O)N[C@@H](C)C(=O)N[C@@H](CCCCNCc2ccccc2)C(=O)N[C@@H]([C@@H](C)CC)C(=O)O[C@H]1C)[C@@H](C)CC)[C@@H](C)CC [Compound 71, H-D-MePhe-Ile-Ser-D-Gln-D-aIle-Ile-Ser-c(D-Thr-Ala-Lys(Bn)-Ile)] | >16 | >530 | 0.03 to 0.06 | ≤0.12 | ≤0.12 | ≤0.12 | ≤0.12 | 0.5 | 0.5 | 92 | 0.03 to 0.06 | >32 | 
2 | CC[C@H](C)[C@H](NC(=O)[C@@H](Cc1ccccc1)NC)C(=O)N[C@@H](CO)C(=O)N[C@H](CCC(N)=O)C(=O)N[C@@H](C(=O)N[C@H](C(=O)N[C@@H](CO)C(=O)N[C@H]1C(=O)N[C@@H](C)C(=O)N[C@@H](Cc2ccc(NC(=N)N)cc2)C(=O)N[C@@H]([C@@H](C)CC)C(=O)O[C@H]1C)[C@@H](C)CC)[C@@H](C)CC [Compound 72, H-D-MePhe-Ile-Ser-D-Gln-D-aIle-Ile-Ser-c(D-Thr-Ala-Phe(4-guanidino)-Ile)] | >16 | >128 | 0.12 to 0.25 | 0.25 | ≤0.12 | ≤0.12 | ≤0.12 | 0.5 | 0.5 | 115 | 0.25 to 0.5 | >32 | 
3 | CC[C@H](C)[C@H](NC(=O)[C@@H](Cc1ccccc1)NC)C(=O)N[C@@H](CO)C(=O)N[C@H](CCC(N)=O)C(=O)N[C@@H](C(=O)N[C@H](C(=O)N[C@@H](CO)C(=O)N[C@H]1C(=O)N[C@@H](C)C(=O)N[C@@H](CCCCNC(=N)N)C(=O)N[C@@H]([C@@H](C)CC)C(=O)O[C@H]1C)[C@@H](C)CC)[C@@H](C)CC [Compound 5, H-D-MePhe-Ile-Ser-D-Gln-D-aIle-Ile-Ser-c(D-Thr-Ala-Har-Ile)] | 10 (≈ 7.95 µM) | 77 | 0.13 (≈ 0.103 µM) | 0.25 | ≤0.12 | ≤0.12 | ≤0.12 | 0.5 | 0.5 | 117 |  | >32 | <0.03 to 0.06
4 | CC[C@H](C)[C@H](NC(=O)[C@@H](Cc1ccc(Cl)cc1)NC)C(=O)N[C@@H](CO)C(=O)N[C@H](CCC(N)=O)C(=O)N[C@@H](C(=O)N[C@H](C(=O)N[C@@H](CO)C(=O)N[C@H]1C(=O)N[C@@H](C)C(=O)N[C@@H](CCCCNC(=N)N)C(=O)N[C@@H]([C@@H](C)CC)C(=O)O[C@H]1C)[C@@H](C)CC)[C@@H](C)CC [Compound 70, H-D-MePhe(4-Cl)-Ile-Ser-D-Gln-D-aIle-Ile-Ser-c(D-Thr-Ala-Har-Ile)] | >16 | >530 | 0.03 to 0.06 | ≤0.12 | ≤0.12 | ≤0.12 | ≤0.12 | 0.25 | ≤0.12 | 114 | 0.015 to 0.03 | >32 | 
5 | CC[C@H](C)[C@H](NC(=O)[C@@H](Cc1ccc(OC)cc1)NC)C(=O)N[C@@H](CO)C(=O)N[C@H](CCC(N)=O)C(=O)N[C@@H](C(=O)N[C@H](C(=O)N[C@@H](CO)C(=O)N[C@H]1C(=O)N[C@@H](C)C(=O)N[C@@H](CCCCNC(=N)N)C(=O)N[C@@H]([C@@H](C)CC)C(=O)O[C@H]1C)[C@@H](C)CC)[C@@H](C)CC [Compound 74, H-D-MeTyr(Me)-Ile-Ser-D-Gln-D-aIle-Ile-Ser-c(D-Thr-Ala-Har-Ile)] | >16 | >530 | 0.06 (≈ 0.0466 µM) | ≤0.12 | ≤0.12 | ≤0.12 | ≤0.12 | 1 | 0.5 | 136 | 0.06 to 0.12 | >32 | 
